Experimental data: US20230286973A1, “PROTEIN SECRETION INHIBITORS” (KEZAR LIFE SCIENCES, priority 2020, published 2023)
pEC50, pIC50: −log10 of the molar value.

How the values were obtained:
[1] = system: HER3-ss+4aa/Gaussia Luciferase; test: Dox-Induced Her3-ss-Gluc Assay; assay type: cell-based; conditions: 24 hr Dox induction; 293FRT/TO cells; mean; read-out: 24 hr Dox Inducible Her3(ss + 4)Gluc 293FRT/TO: Mean IC50
How it was run: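 Flp-In 293 T-REx cells, stable HER3-ss+4aa/Gaussia luciferase insert, hygromycin/blasticidin selected; plated day before; compound in DMSO/media + doxycycline; 37° C., 5% CO2.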

[2] = system: PD1-ss+10aa/Gaussia Luciferase; test: Dox-Induced PD1-ss-Gluc Assay; assay type: cell-based; conditions: 24 hr Dox induction; 293FRT/TO cells; mean; read-out: 24 hr Dox Inducible PD1ssGluc 293FRT/TO: Mean IC50
How it was run: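 Flp-In 293 T-REx cells stably carrying a doxycycline-inducible Gaussia luciferase fused to the PD1 signal sequence plus 10 aa were plated the day before. Compound dilutions in DMSO/media containing doxycycline were then added and incubated at 37 °C, 5% CO2. Data for undefined stereochemistry refer to stereoisomer mixtures.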

[3] = system: IL-2-FL/Gaussia Luciferase; test: Dox Induced IL2-FL-Gluc Assay; assay type: cell-based; conditions: for pIC50: 24 hr Dox induction, 293FRT/TO cells, mean, read-out: 24 hr Dox Inducible IL2FLGluc 293FRT/TO: Mean IC50; for 24 hr Dox Inducible IL2FLGluc 293FRT/TO: IL2/PD1: ratio of IL2FLGluc IC50 to PD1ssGluc IC50, '<=>' given where both are I.A.
How it was run: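 Stable Flp-In 293 T-REx line, Tet-regulated IL-2 (aa 1-153)–Gaussia luciferase fusion; hygromycin/blasticidin selected. Plated day -1; compound + doxycycline added next day; 37° C, 5% CO2.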

[4] = Liver Microsome Stability Assay (monkey); conditions: monkey liver microsomes, with NADPH, 1.0 uM compound
Protocol: (§1) Stability of a compound was assessed in the presence of liver microsomes from various sources—mouse, rat, monkey and human liver microsomes. 1.0 uM compound, 0.4% DMSO in 0.1 M Potassium Phosphate with 1.0 mg/mL liver microsomes, were incubated at 37° C. with or without 1 mM NADPH. The samples were quenched at 0, and 30 minutes.

[5] = system: TNFα-FL/Gaussia Luciferase; test: Dox Induced TNFα-FL-Gluc Assay; assay type: cell-based; conditions: for pIC50: 24 hr Dox induction, 293FRT/TO cells, mean, read-out: 24 hr Dox Inducible TNFaFLGluc 293FRT/TO: Mean IC50; for 24 hr Dox Inducible TNFaFLGluc 293FRT/TO: TNF/PD1: ratio of TNFaFLGluc IC50 to PD1ssGluc IC50, '<=>' given where both are I.A.
How it was run: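 Cell line: stable Flp-In 293 T-REx, TNFα-FL(1-233)-Gaussia luciferase fusion, T-REx-inducible. Plated day -1; compounds in DMSO/media + doxycycline, 37 °C, 5% CO2. Undefined stereocentres = mixture tested.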

[6] = Liver Microsome Stability Assay (mouse); conditions: mouse liver microsomes, with NADPH, 1.0 uM compound
Protocol: as §1

[7] = system: multiple myeloma cell line NCI-H929; test: H929 Cell Viability Assay; assay type: cell-based, human; conditions: Homo sapiens, NCI-H929, 48 h, NCI-H929 cells, Celltiter-Glo
How it was run: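 Cells in RPMI 1640/10% FBS; compound dilutions in DMSO/media; 48 h, 37° C, 5% CO2; CellTiter-Glo luciferase readout for viability.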

[8] = system: multiple myeloma cell line U266B1; test: U266 Cell Viability Assay; assay type: cell-based, human; conditions: Homo sapiens, U-266, 48 h, U266B1 cells, Celltiter-Glo
How it was run: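 Luminescent ATP read-out (CellTiter-Glo) after 48 h compound exposure at 37° C., 5% CO2; cells maintained in RPMI 1640/10% FBS/2 mM glutamine/pen-strep, compounds diluted in DMSO/media.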

[9] = Liver Microsome Stability Assay (human); conditions: human liver microsomes, with NADPH, 1.0 uM compound
Protocol: as §1

[10] = Liver Microsome Stability Assay (rat); conditions: rat liver microsomes, with NADPH, 1.0 uM compound
Protocol: as §1

Row | Compound | pIC50 [1] | pIC50 [2] | pIC50 [3] | Liver Microsome Stability (Multiple Species): Monkey - % Remaining after 30 min w/NADPH [4] [%] | pIC50 [5] | Liver Microsome Stability (Multiple Species): Mouse - % Remaining after 30 min w/NADPH [6] [%] | pEC50 [7] | pEC50 [8] | Liver Microsome Stability (Multiple Species): Human - % Remaining after 30 min w/NADPH [9] [%] | Liver Microsome Stability (Multiple Species): Rat - % Remaining after 30 min w/NADPH [10] [%] | 24 hr Dox Inducible IL2FLGluc 293FRT/TO: IL2/PD1 [3] | 24 hr Dox Inducible TNFaFLGluc 293FRT/TO: TNF/PD1 [5]
1 | O=C(O)CCn1cccc1C(=O)Nc1nc([C@H]2CCCN2c2ccccc2)cs1 [Compound C12] | < 4.60 | < 4.60 | < 4.60 | 90.9 | < 4.60 | 60.4 | < 4.60 | < 4.60 | 75.1 | 76.3 | 1 | 
2 | O=C(O)CCCn1cccc1C(=O)Nc1nc([C@H]2CCCN2c2ccccc2)cs1 [Compound C13] | < 4.60 | < 4.60 | < 4.60 | 81.3 | < 4.60 | 64.9 | < 4.60 | < 4.60 | 82.1 | 87.9 | 1 | 
3 | O=C(Nc1nc([C@H]2CCCN2c2ccccc2)cs1)c1cccn1CCCc1nnn[nH]1 [Compound C14, (R)-1-(3-(1H-tetrazol-5-yl)propyl)-N-(4-(1-phenylpyrrolidin-2-yl)thiazol-2-yl)-1H-pyrrole-2-carboxamide] | < 4.60 | < 4.60 | < 4.60 | 90.3 | < 4.60 | 57.8 | < 4.60 | < 4.60 | 74.3 | 78.7 | 1 | 
4 | NC(=O)CCn1cccc1C(=O)Nc1nc([C@H]2CCCN2c2ccccc2)cs1 [Compound C15] | < 4.60 | < 4.60 | < 4.60 | 22.4 | < 4.60 | 31.7 | < 4.60 | < 4.60 | 29.3 | 18.3 | 1 | 
5 | Cn1cccc1C(=O)Nc1nc([C@H]2CCCN2c2ccccc2)cs1 [Compound C17, (R)-1-methyl-N-(4-(1-phenylpyrrolidin-2-yl)thiazol-2-yl)-1H-pyrrole-2-carboxamide] | < 4.60 | 4.65 | 5.17 | 30.9 | < 4.60 | 9.27 | < 4.60 | < 4.60 | 58.7 | 10.3 | 0.3 | >1.12
6 | COCCCCn1cccc1C(=O)Nc1nc([C@H]2CCCN2c2ccccc2)cs1 [Compound C23, (R)-1-(4-methoxybutyl)-N-(4-(1-phenylpyrrolidin-2-yl)thiazol-2-yl)-1H-pyrrole-2-carboxamide] | 4.76 | 5.29 | 5.12 | 4.38 | < 4.60 | 12.7 | 4.62 | < 4.60 | 15.8 | 8.52 | 1.5 | >4.91

Molecules with a higher pIC50 [1], results first:

Row | pIC50 [1] | pIC50 [2] | pIC50 [3] | Liver Microsome Stability (Multiple Species): Monkey - % Remaining after 30 min w/NADPH [4] [%] | pIC50 [5] | Liver Microsome Stability (Multiple Species): Mouse - % Remaining after 30 min w/NADPH [6] [%] | pEC50 [7] | pEC50 [8] | Liver Microsome Stability (Multiple Species): Human - % Remaining after 30 min w/NADPH [9] [%] | Liver Microsome Stability (Multiple Species): Rat - % Remaining after 30 min w/NADPH [10] [%] | Compound | 24 hr Dox Inducible IL2FLGluc 293FRT/TO: IL2/PD1 [3] | 24 hr Dox Inducible TNFaFLGluc 293FRT/TO: TNF/PD1 [5]
7 | 5.05 | 5.09 | 5.16 | 78.9 | < 4.60 | 26.7 | < 4.60 | < 4.60 | 8.13 | 3.26 | O=C(Nc1nc([C@H]2CCCN2c2ccccc2)cs1)c1cccn1CCc1nnn[nH]1 [Compound C16, (R)-1-(2-(1H-tetrazol-5-yl)ethyl)-N-(4-(1-phenylpyrrolidin-2-yl)thiazol-2-yl)-1H-pyrrole-2-carboxamide] | 0.85 | >3.09
8 | 7.41 | 7.83 | 7.14 | 23.6 | 6.57 | 62.6 | 5.72 | < 4.60 | 63.8 | 60.2 | Cc1ccc(N2CCC[C@@H]2c2csc(NC(=O)c3cccn3CC3CCOCC3)n2)cc1 [Compound C53, (R)-1-((tetrahydro-2H-pyran-4-yl)methyl)-N-(4-(1-(p-tolyl)pyrrolidin-2-yl)thiazol-2-yl)-1H-pyrrole-2-carboxamide] | 4.9 | 18.2
9 | 6.57 | 6.88 | 6.32 | 46.8 | 5.75 | 99.1 | 5.19 | < 4.60 | 77.9 | 67.6 | O=C(Nc1nc([C@H]2CCCN2c2ccc(OC(F)(F)F)cc2)cs1)c1cccn1CC1CCOCC1 [Compound C54, (R)-1-((tetrahydro-2H-pyran-4-yl)methyl)-N-(4-(1-(4-(trifluoromethoxy)phenyl)pyrrolidin-2-yl)thiazol-2-yl)-1H-pyrrole-2-carboxamide] | 3.6 | 13.5
10 | 6.43 | 6.77 | 6.13 | 6.6 | 5.59 | 22.7 | 4.70 | < 4.60 | 26.7 | 22.5 | O=C(Nc1nc([C@H]2CCCN2c2ccccc2)cs1)c1cccn1CC1CCOCC1 [Compound C55, (R)-N-(4-(1-phenylpyrrolidin-2-yl)thiazol-2-yl)-1-((tetrahydro-2H-pyran-4-yl)methyl)-1H-pyrrole-2-carboxamide] | 4.4 | 15.3
11 | 5.49 | 5.76 | 5.33 | 2.02 | 4.72 | 21 | < 4.60 | < 4.60 | 24.4 | 10.9 | O=C(Nc1nc([C@H]2CCCN2c2ccccc2)cs1)c1cccn1CC1CCOC1 (stereo partly drawn) [Compound C56, N-(4-((R)-1-phenylpyrrolidin-2-yl)thiazol-2-yl)-1-((tetrahydrofuran-3-yl)methyl)-1H-pyrrole-2-carboxamide] | 2.7 | 11
